Literature values in US20100119622A1, “3H-BENZOOXAZOL-2-ONE MODULATORS OF D2 RECEPTOR AND/OR 5-HT1A RECEPTOR” (AUSPEX PHARMACEUTICALS, INC., priority 2008, published 2010).

Settings: healthy subjects

elimination half-life: 14 h
SMILES: O=c1[nH]c2cccc(N3CCN(Cc4cccc(-c5ccccc5)c4)CC3)c2o1 [Bifeprunox, 7-[4-[(3-Phenylphenyl)methyl]piperazin-1-yl]-3H-benzooxazol-2-one]
